Measurements as given in patent US9260439B2, “Dihydropyrrolopyrimidine derivatives” (PFIZER INC., priority 2014, dated 2016).

How the values were obtained:
[1] = target: truncated PI3Kα (p110α/iSH2 p85α) (Homo sapiens (Human), UniProt P42336); assay: PI3KA_Act fluorescence polarization kinase assay (Ki); assay type: biochemical; details: 1 mM ATP
In short: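 p110α/iSH2 p85α (0.5 nM) was reacted with 30 μM sonicated PIP2 in 50 mM HEPES pH 7.4, 150 mM NaCl, 5 mM MgCl2, 1 mM DTT and 0.05% CHAPS for 30 min at room temperature, then stopped with EDTA. PIP3 was detected by fluorescence polarization (GST-Grp1 PH domain/TAMRA-PIP3), and Ki came from a Morrison tight-binding fit.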

[2] = target: full-length PI3Kα (full-length p110α/p85α) (Homo sapiens (Human), UniProt P42336); assay: PI3KA_FL fluorescence polarization kinase assay (Ki); assay type: biochemical; details: 41 μM ATP
Sequence of full-length PI3Kα (full-length p110α/p85α) (P42336 whole entry): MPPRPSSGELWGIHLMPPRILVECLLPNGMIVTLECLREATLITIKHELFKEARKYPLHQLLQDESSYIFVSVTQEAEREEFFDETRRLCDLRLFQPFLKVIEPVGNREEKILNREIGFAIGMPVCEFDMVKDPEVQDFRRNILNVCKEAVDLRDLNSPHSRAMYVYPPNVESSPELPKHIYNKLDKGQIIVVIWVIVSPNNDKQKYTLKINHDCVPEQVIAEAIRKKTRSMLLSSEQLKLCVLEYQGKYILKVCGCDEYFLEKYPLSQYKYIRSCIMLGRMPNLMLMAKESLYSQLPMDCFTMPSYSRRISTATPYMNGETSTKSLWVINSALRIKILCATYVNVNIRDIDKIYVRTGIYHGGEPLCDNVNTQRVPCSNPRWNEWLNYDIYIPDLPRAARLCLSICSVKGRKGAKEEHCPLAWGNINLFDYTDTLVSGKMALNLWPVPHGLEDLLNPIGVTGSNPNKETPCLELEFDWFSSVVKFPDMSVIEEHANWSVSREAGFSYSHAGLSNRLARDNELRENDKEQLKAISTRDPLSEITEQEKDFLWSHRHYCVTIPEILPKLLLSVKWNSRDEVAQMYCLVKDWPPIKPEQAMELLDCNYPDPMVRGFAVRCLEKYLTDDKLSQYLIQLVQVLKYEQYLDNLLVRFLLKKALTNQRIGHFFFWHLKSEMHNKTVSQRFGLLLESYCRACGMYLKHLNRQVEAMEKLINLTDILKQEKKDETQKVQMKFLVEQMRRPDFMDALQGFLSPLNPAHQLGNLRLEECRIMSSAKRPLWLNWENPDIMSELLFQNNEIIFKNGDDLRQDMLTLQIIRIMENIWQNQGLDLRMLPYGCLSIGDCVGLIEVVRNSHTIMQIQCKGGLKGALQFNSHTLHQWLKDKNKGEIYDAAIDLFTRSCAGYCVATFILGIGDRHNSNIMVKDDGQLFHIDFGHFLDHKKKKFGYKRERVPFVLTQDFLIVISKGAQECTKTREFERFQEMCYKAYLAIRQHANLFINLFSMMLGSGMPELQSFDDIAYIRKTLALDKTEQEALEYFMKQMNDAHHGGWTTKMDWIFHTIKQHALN
Sequence of full-length PI3Kα (full-length p110α/p85α) (P27986 whole entry partner): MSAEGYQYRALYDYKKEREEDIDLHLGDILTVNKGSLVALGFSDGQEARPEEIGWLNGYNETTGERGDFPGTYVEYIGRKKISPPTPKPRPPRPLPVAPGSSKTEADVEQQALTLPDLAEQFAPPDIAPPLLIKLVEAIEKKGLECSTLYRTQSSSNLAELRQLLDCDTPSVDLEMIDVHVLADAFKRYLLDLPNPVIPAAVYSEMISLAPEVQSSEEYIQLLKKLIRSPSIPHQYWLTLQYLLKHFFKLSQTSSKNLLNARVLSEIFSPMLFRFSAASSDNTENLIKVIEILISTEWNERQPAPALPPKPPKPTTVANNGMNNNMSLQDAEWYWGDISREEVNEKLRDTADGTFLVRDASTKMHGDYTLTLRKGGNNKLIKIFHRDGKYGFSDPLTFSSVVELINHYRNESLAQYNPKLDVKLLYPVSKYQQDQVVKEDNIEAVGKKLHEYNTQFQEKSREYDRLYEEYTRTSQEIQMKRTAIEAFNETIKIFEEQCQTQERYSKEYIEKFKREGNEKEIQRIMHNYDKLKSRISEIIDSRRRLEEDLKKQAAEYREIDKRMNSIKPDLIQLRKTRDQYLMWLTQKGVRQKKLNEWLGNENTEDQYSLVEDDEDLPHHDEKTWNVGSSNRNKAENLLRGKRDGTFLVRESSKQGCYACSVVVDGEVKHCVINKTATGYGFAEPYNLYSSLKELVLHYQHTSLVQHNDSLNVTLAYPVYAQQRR

Sequence of truncated PI3Kα (p110α/iSH2 p85α) (P42336 whole entry, the tested form may be a part): as the sequence (P42336 whole entry) above

| SMILES | PI3KA_Act Ki [1] [nM] | PI3KA_FL Ki (nM) [2] | PI3KA_FL Ki [2] [nM] |
| --- | --- | --- | --- |
| CCS(=O)(=O)N1CC(N2CCc3c(-c4cnc(N)nc4)nc(N4CCOCC4)nc32)C1 [Example 108] | 0.122 | ≦0.229 nM |  |
| Nc1ncc(-c2nc(N3CCOCC3)nc3c2CCN3C2CN(S(=O)(=O)C3CC3)C2)cn1 [Example 109] | 0.118 | ≦0.229 nM |  |
| CC(C)S(=O)(=O)N1CC[C@@H](N2CCc3c(-c4cnc(N)nc4)nc(N4CCOCC4)nc32)C1 [Example 111] | 0.151 | ≦0.229 nM |  |
| C[C@H]1COCCN1c1nc(-c2cnc(N)nc2)c2c(n1)N(C1CN(S(C)(=O)=O)C1)CC2 [Example 113] | 0.289 | ≦0.229 nM |  |
| CCS(=O)(=O)N1CC(N2CCc3c(-c4cnc(N)nc4)nc(N4CCOC[C@@H]4C)nc32)C1 [Example 115] | 0.105 | ≦0.229 nM |  |
| CNS(=O)(=O)N1C[C@@H](N2CCc3c(-c4cnc(N)nc4)nc(N4CCOC[C@@H]4C)nc32)[C@H](OC)C1 [Example 117] | 0.179 |  | 0.256 |
| C[C@H]1COCCN1c1nc(-c2cnc(N)nc2)c2c(n1)N(C1CN(S(=O)(=O)C3CC3)C1)CC2 [Example 118] | 0.030 | ≦0.229 nM |  |
| CCS(=O)(=O)N1CC[C@H](N2CCc3c(-c4cnc(N)nc4)nc(N4CCOC[C@@H]4C)nc32)C1 [Example 119] | 0.059 | ≦0.229 nM |  |
| C[C@H]1COCCN1c1nc(-c2cnc(N)nc2)c2c(n1)N(C1CN(S(=O)(=O)N(C)C)C1)CC2 [Example 120] | 0.030 | ≦0.229 nM |  |
| C[C@H]1COCCN1c1nc(-c2cnc(N)nc2)c2c(n1)N([C@H]1CCN(S(=O)(=O)C3CC3)C1)CC2 [Example 121] | 0.056 | ≦0.229 nM |  |
| CNS(=O)(=O)N1CC(N2CCc3c(-c4cnc(N)nc4)nc(N4CCOC[C@@H]4C)nc32)C1 [Example 122] | 0.064 | ≦0.229 nM |  |
| COC(=O)N1CC[C@H](N2CCc3c(-c4cnc(N)nc4)nc(N4CCOC[C@@H]4C)nc32)C1 [Example 123] | 0.069 | ≦0.229 nM |  |
| CCOC(=O)N1CC[C@H](N2CCc3c(-c4cnc(N)nc4)nc(N4CCOC[C@@H]4C)nc32)C1 [Example 125] | 0.087 | ≦0.229 nM |  |
| C[C@H]1COCCN1c1nc(-c2cnc(N)nc2)c2c(n1)N(C1CN(S(N)(=O)=O)C1)CC2 [Example 126] | 0.219 | ≦0.229 nM |  |
| CNS(=O)(=O)N1C[C@@H](O)[C@H](N2CCc3c(-c4cnc(N)nc4)nc(N4CCOC[C@@H]4C)nc32)C1 [Example 128] | 0.126 | ≦0.229 nM |  |
| CC(C)S(=O)(=O)N1CC[C@H](N2CCc3c(-c4cnc(N)nc4)nc(N4CCOC[C@@H]4C)nc32)C1 [Example 131] | 0.044 | ≦0.229 nM |  |
| CC(C)(C)N1CCc2c(-c3cnc(N)nc3)nc(N3CCOCC3)nc21 [Example 132] | 0.150 | ≦0.229 nM |  |
| CC(=O)N1CC(OC(=O)N2CC[C@@H](N3CCc4c(-c5cnc(N)nc5)nc(N5CCOC[C@@H]5C)nc43)C2)C1 [Example 136] | 0.099 | ≦0.229 nM |  |
